# Experimental data published in patent publication US10456434B2, “Extracts obtained from cell line cultures from plants belonging to the Oleaceae family (e.g. Syringa vulgaris), their preparation and use” (CRODA ITALIANA S. P. A., priority 2005, dated 2019).
# How the values were obtained:
# [1] = tested on: whole blood; test: Whole blood luminol dependent chemiluminescence; format: cell-based; details: 0.5 h; fresh human blood, 30 minutes, 37° C.; read-out: Whole blood chemiluminescence (IC 50 mg/ml)
# Description: (§1) Anti-inflammatory activity has been assessed by measuring luminol dependent chemiluminescence generated by free radicals released from whole blood and from white blood cells. The assay has been performed using the following protocol: 10 μl of fresh human blood is mixed with 0.980 ml of Hanks saline solution containing 5×10^−5 M luminol and the test sample (at various concentrations). The chemiluminescent response is recorded continuously for 30 minutes at a temperature of 37° C. The results are expressed as IC50 (mg/ml), i.e. as the minimum sample, concentration inhibiting chemiluminescence by 50% with respect to the control. To isolate white blood cells (WBC) from whole blood one proceeds in the following manner: 1 ml of fresh blood is layered onto a Hipaque gradient (p=1.119) and centrifuged at 250×g for 60 minutes at room temperature. Following centrifugation, the pellet containing the white blood cells is washed twice, using a large volume of cold Hanks saline solution. Finally, the washed WBCs are resuspended in 01 ml di HBSS containing foetal calf serum. 10^6 WBC are added to a chemiluminometer cuvette. 10 μl of PMA (final concentration equal to 10 nM) are added to induce the formation of free radicals. The chemiluminescent response is recorded continuously for 30 minutes at a temperature of 37° C. […]
# [2] = Metal chelating activity (spectrophotometric), Fe2+; format: binding; details: chelation equilibrium constant, calculated for a pure phenylpropanoid
# Description: (§2) The chelating activities of Syringa vulgaris extracts, verbascoside and isoverbascoside in relation to Fe^2+, Fe^3+, Cu^2+ and Ni^2+ metal ions has been determined by means of spectrophotometric measurements using a Shimadzu 1770 UV spectrophotometer. The activities of chelating agents depends on the association constant (equilibrium) of their reactions with the metals according to the following reaction:
# (§3) [formula] wherein Keq is the equilibrium constant equal to the ratio of concentrations at equilibrium of a complex and product of equilibrium concentrations of metal ions and a chelator:
# (§4) [formula] The method used for determining chelating activity is well documented in the literature (Korkina L G, Afarras'er IB. Antioxidant and chelating properties of flavonoids. Adv. Pharmacol., 1997, 38:151-63). The results are expressed as Keg (M^−1) calculated for a pure phenylpropanoid. This way the chelating activity against ferrous (Fe II), ferric (Fe III), copper (Cu II) and nickel ions has been calculated.
# [3] = tested on: white blood cells; test: PMA-stimulated white blood cell chemiluminescence; format: cell-based; details: Homo sapiens; 10^6 WBC, PMA 10 nM; read-out: White blood cell chemiluminescence (IC50 mg/ml)
# Description: as §1
# [4] = Metal chelating activity (spectrophotometric), Cu2+; format: binding; details: chelation equilibrium constant, calculated for a pure phenylpropanoid
# Description: as §2, §3, §4
# [5] = tested on: tyrosinase; test: Tyrosinase inhibition, oxidation of L-tyrosine to L-DOPA; format: biochemical; details: 250 μg/ml
# Description: The enzyme tyrosinase catalyses the reactions leading to melanin biosynthesis from tyrosine. […] Substances inhibiting tyrosinase activity produce clearing/bleaching effect on the skin, since they block melanin synthesis. The method used to determine the inhibition of tyrosinase activity in the oxidation reaction of L-tyrosine to L-DOPA is that described in Kim et al. […] Biol. Pharm. Bull. 28(2), 323-327, 2005). The method applied for determination of the inhibition of tyrosinase activity in the conversion of L-DOPA to DOPAquinone is that described in Masamoto et al. (Mushroom tyrosinase inhibitory activity of esculetin isolated from seeds of Euphorbia lathyris L. Biosci. Biotechnol. Biochem., 67(3), 631-634, 2003).
# [6] = tested on: Malassezia furfur ST 8036; test: Multiple dilution antimycotic assay, Malassezia furfur; format: cell-based; details: assayed at 0.625-5 mg/ml
# Description: With the aim of identifying any potential antifungal activity in the Syringa vulgaris extracts, microbiological assays have been prepared, generally known as multiple dilution assays. Such assays have been performed using the following fungal strains: Trycophyton rubrum ATCC 28188 and Malassezia furfur ST 8036. Syringa vulgaris Extracts 1 and 2, verbascoside and isoverbascoside have been assayed at concentrations of […], 1.25 mg/ml, 2.5 mg/ml and 5 mg/ml. The fungal strains used for testing have been inoculated into culture-broth (in Tryptone soy broth medium, for Malassezia furfur the culture medium has been supplemented with 2 ml/100 ml of olive oil) containing Syringa vulgaris extracts 1 and 2, verbascoside and isoverbascoside at the concentrations described above. In parallel with these tests, culture broths containing the microbial strain alone have been prepared (controls). The culture-broths have, been incubated at 30° C. for a period of 28 days. Samples of the various culture-broths have been taken at 0, 7, 14, 21 and 28 days, with the aim of counting the number of CFU/ml in relation to the various fungal strains, by plating the cultures on solid medium. A certain number of serial dilutions have been prepared for each sample in order to determine the fungal load of each culture-broth. Each dilution has been assayed in triplicate on solid medium. […]
Compound,IC50 [1] [mg/mL],"Fe^2+ (Keq, M^−1) [2] [M⁻¹]",IC50 [3] [mg/mL],"Cu^2+ (Keq, M^−1) [4] [M⁻¹]",Test L-tyrosine-DOPA inhibitory activity (%) [5] [%],antimycotic activity towards Malassezia furfur (in words) [6]
"CC1OC(OC2C(O)C(COC(=O)C=Cc3ccc(O)c(O)c3)OC(OCCc3ccc(O)c(O)c3)C2O)C(O)C(O)C1O [Isoverbascoside, b-(3,4-dihydroxyphenyl)-ethyl-O-α-L-ramnopyranosyl(1″-3′)-b-D-(6′-O-caffeoil)glucopyranoside]",1.3,460000 ± 120000,0.25,130000 ± 60000,10.9,activity comparable to Extract 1
"C[C@@H]1O[C@@H](O[C@@H]2[C@@H](O)[C@H](OCCc3ccc(O)c(O)c3)O[C@H](CO)[C@H]2OC(=O)/C=C/c2ccc(O)c(O)c2)[C@H](O)[C@H](O)[C@H]1O [Verbascoside, b-(3,4-dihydroxyphenyl)-ethyl-O-α-L-ramnopyranosyl (1″-3′)-b-D-(4′-O-caffeoil)-glucopyranoside]",1.29,450000 ± 110000,0.23,120000 ± 40000,19.6,activity comparable to Extract 1
